Assay results: patent US20060257543A1, “Molecules comprising linked organic moieties as flavor modifiers for comestible compositions” (priority 2005, published 2006)

These compounds were tested against T1, hT1R2/hT1R3 sweet receptor expressed in an HEK293 cell line (Homo sapiens, UniProt Q7RTX0+Q8TE23) (assay: In vitro hT1R2/hT1R3 sweet taste receptor activation assay (FLIPR, dose response)). Details: read-out: EC50 for activation of a hT1R2/hT1R3 sweet receptor.
T1 construct: expressed in transfected cells; host or cells: HEK293 derivative, clone S-9
T1 sequence (Q8TE23 20-839): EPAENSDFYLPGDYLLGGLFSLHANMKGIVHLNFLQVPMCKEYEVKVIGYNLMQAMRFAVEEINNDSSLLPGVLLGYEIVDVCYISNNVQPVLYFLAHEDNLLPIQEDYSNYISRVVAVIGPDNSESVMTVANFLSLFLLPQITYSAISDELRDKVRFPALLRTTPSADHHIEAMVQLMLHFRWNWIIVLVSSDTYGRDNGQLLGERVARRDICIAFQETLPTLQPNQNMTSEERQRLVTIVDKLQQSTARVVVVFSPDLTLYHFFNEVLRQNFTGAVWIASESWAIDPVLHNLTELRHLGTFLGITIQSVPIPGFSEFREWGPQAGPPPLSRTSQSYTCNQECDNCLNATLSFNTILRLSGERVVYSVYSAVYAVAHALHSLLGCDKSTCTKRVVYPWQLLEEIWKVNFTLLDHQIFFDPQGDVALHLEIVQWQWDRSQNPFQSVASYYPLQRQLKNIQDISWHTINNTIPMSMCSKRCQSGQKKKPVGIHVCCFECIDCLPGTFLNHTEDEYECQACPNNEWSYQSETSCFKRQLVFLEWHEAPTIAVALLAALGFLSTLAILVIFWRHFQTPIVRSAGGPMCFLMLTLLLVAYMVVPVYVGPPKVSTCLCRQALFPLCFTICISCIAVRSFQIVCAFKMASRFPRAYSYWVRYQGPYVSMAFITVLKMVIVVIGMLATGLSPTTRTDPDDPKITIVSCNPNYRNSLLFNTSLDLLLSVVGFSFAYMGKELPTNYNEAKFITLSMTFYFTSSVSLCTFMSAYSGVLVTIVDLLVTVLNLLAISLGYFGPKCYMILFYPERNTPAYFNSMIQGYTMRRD
T1 sequence (Q7RTX0 21-852): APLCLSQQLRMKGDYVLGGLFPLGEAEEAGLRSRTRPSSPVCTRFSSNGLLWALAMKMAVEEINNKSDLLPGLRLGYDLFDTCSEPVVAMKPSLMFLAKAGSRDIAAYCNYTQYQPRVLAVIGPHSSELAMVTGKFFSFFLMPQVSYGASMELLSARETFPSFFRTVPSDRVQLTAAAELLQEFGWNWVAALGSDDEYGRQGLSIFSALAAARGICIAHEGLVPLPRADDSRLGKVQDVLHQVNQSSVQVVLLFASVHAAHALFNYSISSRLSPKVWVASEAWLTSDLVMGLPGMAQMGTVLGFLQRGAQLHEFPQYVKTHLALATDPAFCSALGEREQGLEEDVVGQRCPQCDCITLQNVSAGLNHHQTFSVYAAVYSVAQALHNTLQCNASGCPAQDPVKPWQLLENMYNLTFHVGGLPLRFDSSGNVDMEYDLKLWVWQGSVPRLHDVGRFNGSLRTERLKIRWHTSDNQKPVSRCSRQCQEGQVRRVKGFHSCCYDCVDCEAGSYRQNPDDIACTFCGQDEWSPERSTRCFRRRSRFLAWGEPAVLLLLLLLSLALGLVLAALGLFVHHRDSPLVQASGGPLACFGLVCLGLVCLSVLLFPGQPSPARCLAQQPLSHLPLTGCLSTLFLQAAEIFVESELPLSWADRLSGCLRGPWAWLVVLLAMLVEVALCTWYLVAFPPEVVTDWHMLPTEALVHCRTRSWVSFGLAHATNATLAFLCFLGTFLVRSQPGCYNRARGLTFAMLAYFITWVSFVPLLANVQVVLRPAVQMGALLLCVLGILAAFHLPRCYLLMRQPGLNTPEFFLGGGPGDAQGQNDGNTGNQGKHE
Format: cell-based
Excerpt: An HEK293 cell line derivative (see Chandrashekar, J., Mueller, K. L., Hoon, M. A., Adler, E., Feng, L., Guo, W., Zuker, C. S., Ryba, N. J.,. Cel,l 2000, 100, 703-711.) that stably expresses Gα15 and hT1R2/hT1R3 (see Li, X., Staszewski, L., Xu, H., Durick, K., Zoller, M., Adler, E. Proc Natl Acad Sci USA 2002, 99, 4692-4696, and PCT Publication No. WO 03/001876) was used to identify compounds with sweet taste enhancing properties. These references are hereby incorporated herein by reference for their methods of preparing and maintaing the cell lines discussed below, and for their methods for screeing compounds that inhibit the biological receptors.
Compounds covered in this document were initially selected based on their activity on the hT1R2/hT1R3—HEK293-Gα15 cell line (Li, et al. vide supra). Activity was determined using an automated fluorometric imaging assay on a FLIPR instrument (Fluorometric Intensity Plate Reader, Molecular Devices, Sunnyvale, Calif.) (designated FLIPR assay). Cells from one clone (designated S-9 cells) were seeded into 384-well plates (at approximately 50,000 cells per well) in a medium containing DMEM Low Glucose (Invitrogen, Carlsbad, Calif.), 10% dialyzed fetal bovine serum (Invitrogen, Carlsbad, Calif.), 100 Units/ml Penicillin G, and 100 μg/ml Streptomycin (Invitrogen, Carlsbad, Calif.) (Li, et al. vide supra) see also World Patent No. WO 03/001876 A2). S-9 cells were grown for 24 hours at 37° C. S-9 cells were then loaded with the calcium dye Fluo-3AM (Molecular Probes, Eugene, Oreg.), 4 μM in a phosphate buffered saline (D-PBS) (Invitrogen, Carlsbad, Calif.), for 1 hour at room temperature. After replacement with 25 μl D-PBS, stimulation was performed in the FLIPR instrument and at room temperature by the addition of 25 μl D-PBS supplemented with different stimuli at concentrations corresponding to twice the desired final level. Receptor activity was quantified by determining the maximal fluorescence increases (using a 480 nm excitation and 535 nm emission) after normalization to basal fluorescence intensity measured before stimulation.
For dose-responses analysis, stimuli were presented in duplicates at 10 different concentrations ranging from 60 nM to 30 μM. Activities were normalized to the response obtained with 400 mM D-fructose, a concentration that elicits maximum receptor response. EC50s were determined using a non-linear regression algorithm (using a Senomyx, Inc. software), where the Hill slope, bottom asymptotes and top asymptotes were allow to vary. Identical results were obtained when analyzing the dose-response data using commercially available software for non-linear regression analysis such as GraphPad PRISM (San Diego, Calif.).

Row | Compound | EC50
1 | CC(C)Oc1ccc(NC(=S)NCc2cccs2)cc1 [Example 5, 1-(4-Isopropoxyphenyl)-3-(thiophen-2-ylmethyl)thiourea] | 120 nM
2 | CC(C)Oc1ccc(NC(=S)NCc2ccco2)cc1 [Example 6, 1-(4-Isopropoxyphenyl)-3-(furan-2-ylmethyl)thiourea] | 550 nM
3 | CCOc1ccc(NC(=S)NCc2ccco2)cc1 [Example 7, 1-(4-ethoxyphenyl)-3-(furan-2-ylmethyl)thiourea] | 1700 nM
4 | CCOc1ccc(NC(=S)NCc2ccoc2)cc1 [Example 8, 1-(4-ethoxyphenyl)-3-(furan-3-ylmethyl)thiourea] | 230 nM
5 | CCC(C)Oc1ccc(NC(=S)NCc2ccco2)cc1 (stereo not shown) [Example 9, 1-(4-sec-Butoxy-phenyl)-3-furan-2-ylmethyl-thiourea] | 5300 nM
6 | CC(C)c1ccc(NC(=S)NCc2ccoc2)cc1 [Example 10, 1-(furan-3-ylmethyl)-3-(4-isopropylphenyl)thiourea] | 750 nM
7 | CC(C)Oc1ccc(NC(=S)NCc2ccccc2)cc1 [Example 11] | 1000 nM
8 | COc1ccc(CNc2ccc(F)cc2C)cc1O [Example 13, 5-((4-fluoro-2-methylphenylamino)methyl)-2-methoxyphenol] | 2290 nM
9 | COc1ccc(CNc2ccc(F)cc2F)cc1O [Example 14, 5-((2,4-difluorophenylamino)methyl)-2-methoxyphenol] | 2100 nM
10 | COc1ccc(CNc2c(F)cc(F)cc2F)cc1O [Example 15, 2-methoxy-5-((2,4,6-trifluorophenylamino)methyl)phenol] | 2320 nM
11 | COc1ccc(CNc2ccccc2F)cc1O [Example 16, 5-((2-fluorophenylamino)methyl)-2-methoxyphenol] | 2410 nM
12 | COc1ccc(CNc2cc(C)ccc2C)cc1O [Example 17, 5-((2,5-dimethylphenylamino)methyl)-2-methoxyphenol] | 2580 nM
13 | CC(C)Oc1ccc(NC(=S)NCc2ccc[nH]2)cc1 [Example 19, 1-((1H-pyrrol-2-yl)methyl)-3-(4-isopropoxyphenyl)thiourea] | 25 nM

Same assay, conditions: read-out: Sweet EC50

Row | Compound | EC50
14 | COc1cc(OC)c(CNC(=S)Nc2ccc(OC(C)C)cc2)c(OC)c1 [Example B1] | 260 nM
15 | CC(C)Oc1ccc(NC(=S)NCc2cccn2C)cc1 [Example B2] | 2590 nM
16 | CC(C)Oc1ccc(NC(=S)NCc2nccs2)cc1 [Example B3] | 1380 nM
17 | CCOc1ccc(NC(=S)NCc2coc(C)c2)cc1 [Example B4] | 1440 nM
18 | CCCOc1ccc(NC(=S)NCc2ccco2)cc1 [Example B5] | 1510 nM
19 | CCc1ccc(NC(=S)NCc2ccoc2)cc1 [Example B6] | 1880 nM
20 | Cc1cc(CNC(=S)Nc2ccc(OC(C)C)cc2)no1 [Example B7] | 1890 nM
21 | CCN(CC)c1ccc(NC(=S)NCc2ccoc2)cc1 [Example B8] | 4090 nM
22 | COc1ccc(CNC(=S)NC(=O)c2ccccc2Cl)cc1 [Example B9] | 4900 nM
23 | CCOc1ccc(NC(=S)NCc2ccc[nH]2)cc1 [Example B10] | 160 nM
24 | CC(C)Oc1ccc(NC(=S)NCc2cccs2)cn1 [Example B11] | 220 nM
25 | CC(C)Oc1ccc(NC(=S)NCc2ccc[nH]2)cn1 [Example B12] | 340 nM
26 | CCn1cccc1CNC(=S)Nc1ccc(OC(C)C)cc1 [Example B13] | 1290 nM
27 | C=CCOc1ccc(NC(=S)NCc2ccc[nH]2)cc1 [Example B14] | 160 nM
28 | C=COc1ccc(NC(=S)NCc2ccc[nH]2)cc1 [Example B15] | 180 nM
29 | CCSc1ccc(NC(=S)NCc2ccc[nH]2)cc1 [Example B16] | 210 nM

More lines, now with the values ahead:

Row | EC50 | Compound
30 | 310 nM | S=C(NCc1ccc[nH]1)Nc1ccc2c(c1)OCCO2 [Example B17]
31 | 410 nM | S=C(NCc1ccc[nH]1)Nc1ccc(SC2CC2)cc1 [Example B18]
32 | 430 nM | CSc1ccc(NC(=S)NCc2ccc[nH]2)cc1 [Example B19]
33 | 590 nM | FC(F)(F)Oc1ccc(NC(=S)NCc2ccc[nH]2)cc1 [Example B20]
34 | 630 nM | CC(C)Nc1ccc(NC(=S)NCc2ccc[nH]2)cc1 [Example B21]
35 | 670 nM | FC(F)(F)c1ccc(NC(=S)NCc2ccc[nH]2)c(Cl)c1 [Example B22]
36 | 790 nM | S=C(NCc1ccc[nH]1)Nc1ccc2c(c1)CCC2 [Example B23]
37 | 870 nM | C=Cc1ccc(NC(=S)NCc2ccc[nH]2)cc1 [Example B24]
38 | 1500 nM | CN(C)c1ccc(NC(=S)NCc2cccs2)cc1 [Example B25]
39 | 1530 nM | S=C(NCc1cccs1)Nc1ccc(-n2cccn2)cc1 [Example B26]
40 | 1710 nM | CC(C)(C)c1ccc(NC(=S)NCc2ccc[nH]2)cc1 [Example B27]
41 | 1910 nM | CCOc1ccc(NC(=S)NCc2ccc(C)o2)cc1 [Example B28]
42 | 2940 nM | COC(=O)c1ccc(NC(=S)NCc2cccs2)cc1 [Example B29]
43 | 3860 nM | CC(C)Oc1ccc(NC(=S)NCc2ccno2)cc1 [Example B30]
44 | 4160 nM | CCOc1ccc(NC(=S)NCc2sccc2C)cc1 [Example B31]
45 | 5190 nM | COc1ccc(NC(=S)NCc2ccc[nH]2)c(C)c1 [Example B32]
46 | 5560 nM | CC(C)COc1ccc(NC(=S)NCc2ccc[nH]2)cc1 [Example B33]
47 | 5960 nM | CCCCc1ccc(NC(=S)NCc2ccc[nH]2)cc1 [Example B34]
48 | 6710 nM | CC(C)Oc1ccc(NC(=S)NCc2cccnc2)cc1 [Example B35]
49 | 7000 nM | C#Cc1ccc(NC(=S)NCc2cccs2)cc1 [Example B36]
50 | 7450 nM | CC(=O)c1ccc(NC(=S)NCc2ccoc2)cc1 [Example B37]
51 | 8170 nM | S=C(NCc1ccc[nH]1)Nc1ccc(N2CCOCC2)cc1 [Example B38]
52 | 8500 nM | OCCSc1ccc(NC(=S)NCc2ccc[nH]2)cc1 [Example B39]
